Where “and” joins values, the source holds several entries; their conditions need not be identical. Equal values may be shown once.
Legend:
[1] = test system: aminopeptidase, endopeptidase, carboxypeptidase; format: in vitro ADME
Protocol: (§1) Enzyme digests were performed using aminopeptidase, endopeptidase, carboxypeptidase, or Drosophila melanogaster Malpighian tubule tissue extract. Peptide digests were performed in triplicate alongside ‘mock’ digests, where protease was substituted with water to determine peptide stability in aqueous media at 37° C. Several peptides were tested, including 1st generation AH56 and 3rs generation AH259. These are biostable in the presence of purified proteases for >24 hours; and for >3 hours to insect tissue extracts which are enriched for proteases.

CapaR = target: T1, CapaR (Drosophila melanogaster, UniProt Q8ITC7); assay: Measurement of intracellular Ca2+ in S2 cells transfected with CapaR (agonist response); format: cell-based; details: 10^−7 M; activity normalised to that of native Capa2 (designated 100%)
T1 construct: transiently transfected with the apoaequorin ORF; expressed in transfected cells; host or cells: Drosophila melanogaster S2 cells, transient transfection, expression induced with CuSO4
T1 sequence (Q8ITC7 1-477): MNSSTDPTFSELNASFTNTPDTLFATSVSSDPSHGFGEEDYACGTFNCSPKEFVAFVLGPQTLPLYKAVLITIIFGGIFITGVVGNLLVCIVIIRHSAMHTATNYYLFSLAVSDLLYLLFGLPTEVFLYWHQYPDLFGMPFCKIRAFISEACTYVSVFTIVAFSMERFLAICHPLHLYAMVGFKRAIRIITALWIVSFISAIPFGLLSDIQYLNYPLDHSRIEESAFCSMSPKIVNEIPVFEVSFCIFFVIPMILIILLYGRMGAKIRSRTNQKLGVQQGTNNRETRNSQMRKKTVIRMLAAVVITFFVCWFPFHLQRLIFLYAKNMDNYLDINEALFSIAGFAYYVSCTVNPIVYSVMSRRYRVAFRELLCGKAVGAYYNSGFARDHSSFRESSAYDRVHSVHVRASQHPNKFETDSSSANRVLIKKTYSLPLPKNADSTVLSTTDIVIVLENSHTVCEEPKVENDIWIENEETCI
Protocol: Drosophila melanogaster S2 cells, cultured under standard conditions (1) were transiently transfected with the apoaequorin ORF (Radford J C, Davies S A, Dow J A. Systematic G-protein-coupled receptor analysis in Drosophila melanogaster identifies a leucokinin receptor with novel roles. J Biol Chem. 2002; 277:38810-38817) and a receptor ORF construct, and expression induced using CuSO4. Transfected S2 cells were harvested and incubated with 2.5 μM coelenterazine in the dark at RT for 1-2 h as described (ibid). 25,000 cells were then placed in 135 μl Schneider's medium supplemented with 10% FCS in a well of a white polystyrene 96-well plate (Berthold Technologies). Bioluminescence recordings were carried out using a Mithras LB940 automated 96-well plate reader (Berthold Technologies) and MikroWin software. 15 μl of each of different peptides were applied to final concentrations as required.
Peptides were tested at 10^−7M.
At the end of each recording samples were disrupted by the addition of 100 μl lysis solution, and the [Ca^2+] concentrations calculated as previously described (Rosay P, Davies S A, Yu Y, Sozen A, Kaiser K, et al. Cell-type specific calcium signalling in a Drosophila epithelium. J Cell Sci. 1997; 110:1683-1692).
For the Capa1 and Capa2 peptides, the relevant native control peptide (D. melanogaster Capa1 or Capa2 respectively) was used as a control. Control agonist activity was normalised to 100% and activity of neuropeptide analogues is expressed relative to that.

[2] = test system: bumblebees (Bombus terrestris); assay: Bumblebee acute oral toxicity test; format: in vivo; details: for lethal effect on bumblebees: 1×10^−5 M in 50% sucrose, 0.1% ATPlus, oral; for safety towards B. terrestris in the bumblebee oral toxicity assay: in vivo
[3] = format: in vitro ADME, Drosophila melanogaster
Protocol: as §1

[4] = test system: Drosophila suzukii larvae; assay: Drosophila suzukii larval feeding (Example 8; peptide screening); format: in vivo
Protocol: (§2) First to Fourth generations of peptides were produced with varying structures and tested for CAPA receptor agonist activity, and screened for lethality in vivo against D. suzukii and M. persicae as per methods in example 2 and example 8. The top performing peptides were selected and gave rise to the list of CAPA1 and CAPA2 peptides provided above in Table 1 which were then further tested in the following applied examples.
Peptides were tested at concentrations ranging from [10^−4 M] to [10^−7 M] in a final volume of 200 μl of 0.8% agarose containing 0.09% m-Cresol purple pH marker dye (Sigma) and 5% sucrose (Sigma).
Agarose was melted in dH2O, before addition of sucrose and dye. The agarose/dye solution was then allowed to cool to 60° C. 96 well plates (flat-bottomed 3596 TC-plates; Corning) containing 20 μl volumes of neuropeptide per well were prepared, and 180 μl agarose/dye solution dispensed into each well via a Distriman repetitive micro-pipettor (Gilson). Controls contained 20 μl dH2O as a ‘sham’ treatment with 180 μl of the 0.8% agarose/dye solution. Plates were agitated at 800 rpm, to ensure mixing, at 60° C. (Eppendorf Thermomixer C). Plates were then allowed to cool, and agarose/dye solution solidify, prior to use.
Each peptide was assayed with a minimum of 7 to maximum 9 late L2/early L3 Spotted wing Drosophila, Drosophila suzukii, (feeding) larvae per well, minimum n=8 wells per peptide concentration and a minimum n=12 control wells per plate. The selected larvae were first washed 2× in ice cold Drosophila Schneider's liquid medium (ThermoFisher) before insertion into wells to remove extraneous food. After complete insertion of all larvae the plates were covered with breathable sealing membrane for multi-well plates (Sigma).
Larvae were assayed for lethality after 48 hr exposure at 21° C. and findings recorded. During examination the assay plate was kept on ice, to reduce larval locomotor activity (wandering), and larvae in each well were examined using a binocular stereomicroscope (Zeiss).
The water control group was used to determine baseline lethality. Results for neuropeptide analogues were calculated as % lethality in the remaining population after adjustment for the baseline. Results are shown in Tables 7 and 8 below, and in FIG. 1.

Myzus persicae aphids = assay: Topical application by spraying, Potter Spray Tower (Example 3); format: in vivo; details: 48 hours post spray
Protocol: Aphids were exposed to test peptides in the absence of additional external stress conditions.
Brassica rapa (Chinese cabbage; Wong Bok) were infested with 30 adult Myzus persicae aphids per plant. Aphids were left at least 2 hours to settle and begin feeding from the host plant.
Potter Spray Tower (Burkard Manufacturing) was ‘primed’ by spraying 1000 μl of liquid coating the inside of the tower. Vehicle spray only (Croda ATPlus UEP 100 LQ-(CQ) 0.1% v/v) was used as a control.
Spray volumes for all solutions were 3000 μl. […] After spraying was completed the plant was allowed to rest on the spray platform for 30 seconds to allow settling of the sprayed chemical.
Post peptide application, each condition was placed into its own individual Bugdorm (Watkins and Doncaster, 44545), to prevent repulsed or displaced aphids moving from one condition to another. Numbers of alive and dead aphids on the plant were counted 48 hours post spray, and the presence of any fresh nymphs noted. Plants were watered prior to spraying but not afterwards to eliminate the possibility of drowning any aphids present or washing off the sprayed liquid.
The vehicle control group was used to determine baseline lethality. Results for neuropeptide analogues were calculated as % lethality in the remaining population after adjustment for the baseline.

M. persicae [5] = assay: Feeding of aphids with peptides in artificial diet (Example 2; peptide screening, honeydew); format: in vivo, Myzus persicae; details: Peptide screening, Table 5
From the text: as §2
The aphid feeding protocol was devised according to Sadeghi et al (2009) as explained in example 1. Feeding discs were designed and manufactured as above. A standard sucrose-based artificial diet for M. persicae (30 aphids per chamber, 3 chambers per experiment unless otherwise stated) was produced as described in example 1 (Sadeghi et al, J. Insect Science, 2009) and provided the basal diet to which peptides were added for screening purposes. Peptides were diluted individually in the artificial diet to 10^−5 M. Lethality was scored after up to 120 hours (IRAC guidelines for aphid testing).
Membrane discs were also included to collect ‘honeydew’ secreted by feeding aphids and stained with ninhydrin to observe feeding patterns.
Comparison of purple stain in controls to treated aphids, show there is very little colour on many membranes where peptides were added.
Capa peptides cause mortality in M. persicae via feeding: At 120 hours, AH383 and AH387 peptides induce ˜60% mean (and median) lethality. Although mean lethality is lower with AH270/PEGAH270 (40%), 100% lethality is observed in one sample of 30 insects (AH270); and 90% in at least one sample of each of AH383, AH387 and PEGAH270 (FIG. 3). Note that PEGAH270 is a pegylated form of peptide AH270.

M. persicae [6] = assay: Feeding of aphids with peptides in artificial diet (Example 1); format: in vivo, Myzus persicae; details: 10^−5 M
Protocol: A standard artificial diet for M. persicae was produced as described in Van Emden (2009) and provided the basal diet to which peptides were added for screening purposes. Peptides were diluted individually in the artificial diet to a pre-determined concentration.
Feeding apparatus were constructed using a set-up developed by Sadeghi et al (2009). For this, a piece of Parafilm was stretched over a Plexiglas ring (h=4 cm, Ø=3 cm) and 100 μl of the artificial diet containing the desired neuropeptide analogue was pipette onto the Parafilm membrane. A second piece of Parafilm, stretched to 4 times the original thickness, was stretched over the original layer, sandwiching the artificial diet between two layers of Parafilm. A strip of Parafilm was wrapped around the circumference of the Plexiglas ring, sealing in the diet. A plastic ring (h=1.2 cm, Ø=3.4 cm) was subsequently placed over the Parafilm layer, creating a walled chamber in which to house test aphids in contact with the Parafilm layer containing the artificial diet. Finally, a small Petri dish (h=1 cm, Ø=3.6 cm), modified for ventilation with net cloth, was placed on top of each feeding apparatus to prevent aphid escape.
To obtain aphids for use in experiments, reproducing anholocyclic adults were placed on individual excised leaves of Chinese cabbage at densities of 5 adults per leaf and allowed to reproduce for 24 h. The stem of each excised leaf was held within a 0.5 mL Eppendorf tube containing water via a punctured hole in the Eppendorf lid, and placed individually within a microcage (L=4 cm, Ø=9.5 cm). Following 24h, adults were removed and resultant first instar nymphs (<1 day old and synchronised in age to within 24h) retained. Nymphs were allowed to develop on the Chinese cabbage for 5 days. On day 5, (3rd instar) nymphs were transferred onto the artificial diet containing a neuropeptide analogue at densities of 1 per feeding chamber and monitored daily until death. Aphids were transferred to fresh artificial diet (containing neuropeptide analogue or water control) every 5 days.
The water control group was used to determine baseline lethality. Results for neuropeptide analogues were calculated as % lethality in the remaining population after adjustment for the baseline.

[7] = Table 12, individual bees, 20% sucrose 0.1% ATPlus AH56
[8] = Table 12, 20% sucrose 0.1% ATPlus AH56

In the case of `CC(C)C[C@H](N=C(N(C)C)N(C)C)C(=O)N(C)[C@H](C(=O)N[C@@H](C)C(=O)N[C@@H](Cc1ccccc1)C(=O)N1CCC[C@H]1C(=O)N[C@@H](CCCNC(=N)N)C(=O)N[C@H](C(N)=O)C(C)C)C(C)C` [AH259, Guanidyl-L-(Me)V-AFPRV-NH2], the “biostable in the presence of purified proteases” value [1] is reported as greater than 24 h, the “CapaR Ca^2+ Agonist response” value (CapaR) is reported as 12% and the “lethal effect on bumblebees” value [2] is reported as “No lethal effect”. For the same molecule, the “safety towards B. terrestris in the bumblebee oral toxicity assay” value [2] was “safe” and the “biostable to insect tissue extracts enriched for proteases” value [3] was greater than 3 h.
With H-Ahx-LVAFPRV-NH2 [AH56] the “Feeding D. suzukii, % lethality in population after adjustment for baseline” value ([4]; 10^−5 M, 48 hr exposure) was 51%, the “D. suzukii (Mean% Lethality ± SD)” value ([4]; Peptide screening, Table 5, blank control 20.33) was 50.63% and the “biostable in the presence of purified proteases” value [1] was greater than 24 h. For the same molecule, the “Spray Aphid, % lethality in population after adjustment for baseline” value (Myzus persicae aphids; 10^−4 M) was 41%, the “Spray Aphid, % lethality in population after adjustment for baseline” value (Myzus persicae aphids; 10^−5 M) was 35% and the “M. persicae (% Lethality)” value (M. persicae [5]) was 30%. The “Feeding Aphid, % lethality in population after adjustment for baseline” value (M. persicae [6]) was 30%, the “lethal effect on bumblebees” value [2] was “No lethal effect” and the Volume remaining [2, 7] was 211 ul (2×) and 295 ul (2×) and 248 ul (2×) and 216 ul (2×) and 178 ul (2×). For the same molecule, the Volume removed [2, 7] was 289 and 205 and 252 and 284 and 322, the “Volume remaining, group mean” value [2, 8] was 229.6 µL and the “Volume removed, group mean” value [2, 8] was 270.4. For the same molecule, the “safety towards B. terrestris in the bumblebee oral toxicity assay” value [2] was “safe” and the “biostable to insect tissue extracts enriched for proteases” value [3] was greater than 3 h.

— patent US20240373849A1, “INSECT NEUROPEPTIDE ANALOGUES” (THE UNIVERSITY COURT OF THE UNIVERSITY OF GLASGOW, priority 2020, published 2024)
